Literature values, collected in patent publication US20140234433A1, “Topical Composition for Stimulating Epidermis and Dermis Layers of the Skin” (priority 2013, published 2014).

Tested on: facial skin

For `CC1=C(/C=C/C(C)=C/C=C/C(C)=C/C(=O)O)C(C)(C)CCC1` [tretinoin], the histological characteristics (0.001% dosage) is given as “same histological characteristics as the inactive base material”, the histological response (0.01% and 0.05%) is given as “increased response with an increase in tretinoin concentrations” and the epidermal thickness (24 weeks) is given as “increase”. The “findings in the dermis” value (24 weeks) was “no positive findings”, the melanocytes (24 weeks) was “decrease” and the stratum corneum (24 weeks) was “stratum corneum compactness”. For the same compound, the granular layer thickness (24 weeks, 1 layer to 2-3 layers) was “increase”, the dermal changes (48 weeks of treatment) was “limited” and the “subjects showing erythema, scaling and peeling, and reporting stinging” value (average of the studies) was “approximately 80%”. The “dermal findings on continued use” value (continued use up to 4 years) was “decrease in elastin and perivascular inflammation”.
